Assay results as given in patent publication US9353082B2, “Pharmaceutical compounds” (BIAL—PORTELA & CA, S.A., priority 2008, dated 2016).

Key:
FAAH [1] = target: T1, FAAH (Rattus norvegicus, UniProt P97612); assay: In vitro FAAH activity in rat brain membranes, 3H-AEA substrate, % of control; format: biochemical, Wistar rats; conditions: rat brain membranes, compound at 100 nM, low value = strong inhibitor
T1 construct: Frozen brains (without cerebellum) from Wistar rats were used; from tissue; host or cells: Wistar rat brain (without cerebellum), washed membrane pellets
T1 sequence (P97612 1-579): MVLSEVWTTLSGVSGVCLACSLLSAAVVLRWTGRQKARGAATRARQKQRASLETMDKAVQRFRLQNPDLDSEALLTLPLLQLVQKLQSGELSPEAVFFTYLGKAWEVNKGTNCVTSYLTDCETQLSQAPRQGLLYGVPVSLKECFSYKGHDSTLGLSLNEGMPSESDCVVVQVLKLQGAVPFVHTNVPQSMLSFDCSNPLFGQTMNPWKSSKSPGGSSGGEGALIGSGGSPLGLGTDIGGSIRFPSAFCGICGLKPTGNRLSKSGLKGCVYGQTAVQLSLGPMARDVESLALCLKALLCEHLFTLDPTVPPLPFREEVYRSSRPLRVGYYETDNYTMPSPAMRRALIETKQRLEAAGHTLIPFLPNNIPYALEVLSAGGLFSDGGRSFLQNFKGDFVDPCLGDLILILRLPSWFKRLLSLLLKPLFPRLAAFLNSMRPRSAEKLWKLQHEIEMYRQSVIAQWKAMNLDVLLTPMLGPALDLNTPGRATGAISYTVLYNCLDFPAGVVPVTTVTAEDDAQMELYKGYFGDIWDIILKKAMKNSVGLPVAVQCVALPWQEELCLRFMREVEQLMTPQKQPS
Procedure, shortened: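 Wistar rat brain membranes (5 μg protein) preincubated 15 min at 37 °C with compound at 10 μM or 0.1 μM (0.1% DMSO), then 2 μM AEA including 3H-AEA with 0.1% BSA, Tris pH 7.6, 10 min. 3H-ethanolamine counted after charcoal stop; % of no-compound control after blank subtraction.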

FAAH [2] = target: T2, FAAH (Mus musculus, UniProt O08914); assay: In vivo FAAH inhibition after oral dosing, remaining activity in brain homogenate (BRh, central nervous tissue); parameters: species or system NMRI mice; conditions: brain homogenate, 3 mg/kg, 8 h after dosing; low value = strong inhibitor
T2 construct: A fragment of liver, left lung lobe and brain without cerebellum were removed; from tissue; host or cells: male NMRI mice; brain (without cerebellum) and liver homogenates
T2 sequence (O08914 1-579): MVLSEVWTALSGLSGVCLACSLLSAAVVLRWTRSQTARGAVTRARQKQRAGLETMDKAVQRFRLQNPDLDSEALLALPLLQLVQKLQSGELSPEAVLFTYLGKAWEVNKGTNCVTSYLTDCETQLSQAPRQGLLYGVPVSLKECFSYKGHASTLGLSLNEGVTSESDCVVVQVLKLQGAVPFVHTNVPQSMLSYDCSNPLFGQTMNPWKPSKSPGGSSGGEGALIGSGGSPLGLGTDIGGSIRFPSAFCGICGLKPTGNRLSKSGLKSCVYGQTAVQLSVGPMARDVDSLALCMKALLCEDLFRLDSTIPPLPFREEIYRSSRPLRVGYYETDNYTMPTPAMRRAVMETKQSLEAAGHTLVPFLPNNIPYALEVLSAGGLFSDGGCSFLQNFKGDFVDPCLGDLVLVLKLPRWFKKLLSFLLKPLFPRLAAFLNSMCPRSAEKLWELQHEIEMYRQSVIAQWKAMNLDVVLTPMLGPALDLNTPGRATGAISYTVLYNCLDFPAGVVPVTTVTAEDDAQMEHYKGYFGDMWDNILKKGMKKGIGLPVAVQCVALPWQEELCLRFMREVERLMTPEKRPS
Procedure, shortened: (§1)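 Male NMRI mice, fasted overnight, got 30 or 3 mg/kg compound orally (0.5% CMC suspension or water) and were compared with vehicle controls. Brain (no cerebellum) and liver homogenates were incubated with 2 μM AEA plus 5 nM 3H-AEA at 37 °C, 10 min for brain and 7 min for liver. Remaining FAAH activity is % of vehicle after blank subtraction.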

FAAH [3] = target: T2, FAAH; assay: In vivo FAAH inhibition after oral dosing, remaining activity in liver homogenate (LVh, peripheral tissue); parameters: species or system NMRI mice; conditions: liver homogenate, 3 mg/kg, 8 h after dosing; low value = strong inhibitor
Procedure, shortened: as §1

| Structure (SMILES) | In Vitro 100 nM (FAAH activity, % of control) (FAAH [1]) | In Vivo BRh 3 mg·kg 8 h (remaining FAAH activity, % of control) (FAAH [2]) | In Vivo LVh 3 mg·kg 8 h (remaining FAAH activity, % of control) (FAAH [3]) |
| --- | --- | --- | --- |
| COc1ccc(-c2cn(C(=O)N(C)C3CCCCC3)cn2)cc1F [Compound 314, N-cyclohexyl-4-(3-fluoro-4-methoxyphenyl)-N-methyl-1H-imidazole-1-carboxamide] | 84.3 % of control | 84.3 % of control | 48 % of control |
| COc1cc(-c2cn(C(=O)N(C)C3CCCCC3)cn2)ccc1F [Compound 319, N-cyclohexyl-4-(4-fluoro-3-methoxyphenyl)-N-methyl-1H-imidazole-1-carboxamide] | 19.2 % of control | 5.9 % of control | 2 % of control |
| COc1cccc(-c2cn(C(=O)N3COCC3(C)C)cn2)c1 [Compound 329, (4,4-dimethyloxazolidin-3-yl)(4-(3-methoxyphenyl)-1H-imidazol-1-yl)methanone] | 99.5 % of control | 83.3 % of control | 18.5 % of control |
| CN(C(=O)n1cnc(-c2ccc(O)c(F)c2)c1)C1CCCCC1 [Compound 330, N-cyclohexyl-4-(3-fluoro-4-hydroxyphenyl)-N-methyl-1H-imidazole-1-carboxamide] | 29.7 % of control | 22.8 % of control | 11.1 % of control |
| CN(C(=O)n1cnc(-c2ccc(O)c(F)c2)c1)C1CCCC1 [Compound 331, N-cyclopentyl-4-(3-fluoro-4-hydroxyphenyl)-N-methyl-1H-imidazole-1-carboxamide] | 3.6 % of control | 4 % of control | 4.9 % of control |
| CC1(C)COCN1C(=O)n1cnc(-c2ccc(O)c(F)c2)c1 [Compound 332, (4,4-dimethyloxazolidin-3-yl)(4-(3-fluoro-4-hydroxyphenyl)-1H-imidazol-1-yl)methanone] | 88.5 % of control | 60 % of control | 19.5 % of control |
| CC1(C)COCN1C(=O)n1cnc(-c2ccc(F)c(O)c2)c1 [Compound 333, (4,4-dimethyloxazolidin-3-yl)(4-(4-fluoro-3-hydroxyphenyl)-1H-imidazol-1-yl)methanone] | 81.9 % of control | 119 % of control | 81.5 % of control |
| CN(C(=O)n1cnc(-c2cc3ccccc3o2)c1)C1CCCCC1 [Compound 334, 4-(benzofuran-2-yl)-N-cyclohexyl-N-methyl-1H-imidazole-1-carboxamide] | 58.2 % of control | 9.9 % of control | 5.1 % of control |
| CN(C(=O)n1cnc(-c2cccnc2)c1)C1CCCCC1 [Compound 335, N-cyclohexyl-N-methyl-4-(pyridin-3-yl)-1H-imidazole-1-carboxamide] | 75.4 % of control | 3.1 % of control | 1 % of control |
| CN(C(=O)n1cnc(-c2ccc(F)c(O)c2)c1)C1CCCCC1 [Compound 343, N-cyclohexyl-4-(4-fluoro-3-hydroxyphenyl)-N-methyl-1H-imidazole-1-carboxamide] | 44.7 % of control | 95.5 % of control | 19.7 % of control |
| CN(C(=O)n1cnc(-c2ccc(F)c(O)c2)c1)C1CCCC1 [Compound 344, N-cyclopentyl-4-(4-fluoro-3-hydroxyphenyl)-N-methyl-1H-imidazole-1-carboxamide] | 1.7 % of control | 121.1 % of control | 2.1 % of control |
| CC1(C)COCN1C(=O)n1cnc(-c2cccc(O)c2)c1 [Compound 347, (4,4-dimethyloxazolidin-3-yl)(4-(3-hydroxyphenyl)-1H-imidazol-1-yl)methanone] | 109.6 % of control | 76.6 % of control | 24.5 % of control |
| COc1cc(-c2cn(C(=O)N3COCC3(C)C)cn2)ccc1F [Compound 351, (4,4-dimethyloxazolidin-3-yl)(4-(4-fluoro-3-methoxyphenyl)-1H-imidazol-1-yl)methanone] | 95.6 % of control | 7.1 % of control | 11.7 % of control |
| CN(C(=O)n1cnc(-c2ccc(O)c(N)c2)c1)C1CCCCC1.Cl [Compound no. 357, 4-(3-amino-4-hydroxyphenyl)-N-cyclohexyl-N-methyl-1H-imidazole-1-carboxamide hydrochloride] | 93.9 % of control | 111.9 % of control | 10.4 % of control |
| CC1(C)COCN1C(=O)n1nnc2cc(Cl)ccc21 [Compound no. 359, (5-chloro-1-benzo[d][1,2,3]triazol-1-yl)(4,4-dimethyloxazolidin-3-yl)methanone] | 1.4 % of control | 2.5 % of control | 1.7 % of control |
| CC1(C)COCN1C(=O)n1nnc2c(F)cc(F)cc21 [Compound no. 360, (4,6-difluoro-1H-benzo[d][1,2,3]triazol-1-yl)(4,4-dimethyloxazolidin-3-yl)methanone] | 1.6 % of control | 3.1 % of control | 3.7 % of control |
| CC1(C)COCN1C(=O)n1nnc2ccc(-c3ccccc3)cc21 [Compound no. 361, (4,4-dimethyloxazolidin-3-yl)(6-phenyl-1H-benzo[d][1,2,3]triazol-1-yl)methanone] | 1.3 % of control | 6.3 % of control | 1.4 % of control |
